Read-outs that look alike come from different tables or passages of the source.
Experiments:
SREBP-2 = SREBP-2 (Homo sapiens (Human), UniProt Q12772); assay: In vitro assay SREBP-2: PathHunter U2OS SREBP-2 Nuclear Translocation Cell Line, U18666A-stimulated; assay type: cell-based
LXRβ = LXRβ (Homo sapiens (Human), UniProt P55055); assay: In vitro assay LXRβ: PathHunter NHR CHO cells, LXRβ / Steroid Receptor Co-activator Peptide enzyme fragment complementation; assay type: cell-based; details: PathHunter NHR CHO cells, full-length human LXRβ and SRCP, chemiluminescent signal; read-out: LXRβ PPI
Summary of the method: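 Enzyme fragment complementation read-out: CHO cells stably expressing ProLink-tagged full-length human LXRβ plus nuclear enzyme acceptor–SRCP fusion, seeded and held overnight at 37° C. Medium with charcoal-dextran filtered serum; final vehicle 1%. Chemiluminescence measured after signal generation.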

[1] = PathHunter U2OS SREBP-2 nuclear translocation cells, U18666A 10 μM, overnight (16 hours)

LXRβ, sequence (P55055 whole entry, the tested form may be a part): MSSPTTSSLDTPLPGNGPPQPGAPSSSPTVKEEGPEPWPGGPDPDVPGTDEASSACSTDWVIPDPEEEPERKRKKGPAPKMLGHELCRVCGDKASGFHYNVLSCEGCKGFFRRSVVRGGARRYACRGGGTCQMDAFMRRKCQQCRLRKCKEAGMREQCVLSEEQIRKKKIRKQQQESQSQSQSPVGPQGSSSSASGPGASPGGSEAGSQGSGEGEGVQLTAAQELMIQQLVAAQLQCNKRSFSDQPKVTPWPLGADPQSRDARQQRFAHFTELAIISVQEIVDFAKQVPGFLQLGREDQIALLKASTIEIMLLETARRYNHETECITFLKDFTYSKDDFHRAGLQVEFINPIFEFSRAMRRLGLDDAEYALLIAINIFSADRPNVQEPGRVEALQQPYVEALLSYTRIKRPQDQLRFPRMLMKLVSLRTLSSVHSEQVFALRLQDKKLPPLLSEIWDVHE

Compound | IC50 (SREBP-2; [1]) | EC50 (LXRβ) | IC50 (SREBP-2)
Cc1noc(N2CCN(C(=O)CC[C@@H](C)[C@H]3CC[C@H]4[C@@H]5CC=C6C[C@@H](O)CC[C@]6(C)[C@H]5CC[C@]34C)CC2)n1 [Example 495, (R)-4-((3S,8S,9S,10R,13R,14S,17R)-3-hydroxy-10,13-dimethyl-2,3,4,7,8,9,10,11,12,13,14,15,16,17-tetradecahydro-1H-cyclopenta[a]phenanthren-17-yl)-1-(4-(3-methyl-1,2,4-oxadiazol-5-yl)piperazin-1-yl)pentan-1-one] | < 250 nM | > 10000 nM | –
C[C@H](CCc1ccncc1)[C@H]1CC[C@H]2[C@@H]3CC=C4C[C@@H](O)CC[C@]4(C)[C@H]3CC[C@]12C [Example 160, (3S,8S,9S,10R,13R,14S,17R)-10,13-dimethyl-17-((R)-4-(pyridin-4-yl)butan-2-yl)-2,3,4,7,8,9,10,11,12,13,14,15,16,17-tetradecahydro-1H-cyclopenta[a]phenanthren-3-ol] | 250 to 1000 nM | > 10000 nM | –
CCN(C)C(=O)N1CCN(C(=O)CC[C@@H](C)[C@H]2CC[C@H]3[C@@H]4CC=C5C[C@@H](O)CC[C@]5(C)[C@H]4CC[C@]23C)CC1 [Example 213, N-ethyl-4-((R)-4-((3S,8S,9S,10R,13R,14S,17R)-3-hydroxy-10,13-dimethyl-2,3,4,7,8,9,10,11,12,13,14,15,16,17-tetradecahydro-1H-cyclopenta[a]phenanthren-17-yl)pentanoyl)-N-methylpiperazine-1-carboxamide] | < 250 nM | > 10000 nM | –
Cc1ncsc1N1CCN(C(=O)CC[C@@H](C)[C@H]2CC[C@H]3[C@@H]4CC=C5C[C@@H](O)CC[C@]5(C)[C@H]4CC[C@]23C)CC1 [Example 607, (R)-4-((3S,8S,9S,10R,13R,14S,17R)-3-hydroxy-10,13-dimethyl-2,3,4,7,8,9,10,11,12,13,14,15,16,17-tetradecahydro-1H-cyclopenta[a]phenanthren-17-yl)-1-(4-(4-methylthiazol-5-yl)piperazin-1-yl)pentan-1-one] | < 250 nM | > 10000 nM | –
C[C@H](COc1cc(CO)ccn1)[C@H]1CC[C@H]2[C@@H]3CC=C4C[C@@H](O)CC[C@]4(C)[C@H]3CC[C@]12C [Example 258, (3S,8S,9S,10R,13S,14S,17R)-17-((S)-1-((4-(hydroxymethyl)pyridin-2-yl)oxy)propan-2-yl)-10,13-dimethyl-2,3,4,7,8,9,10,11,12,13,14,15,16,17-tetradecahydro-1H-cyclopenta[a]phenanthren-3-ol] | < 250 nM | > 10000 nM | –
COc1ncncc1N1CCN(C(=O)CC[C@@H](C)[C@H]2CC[C@H]3[C@@H]4CC=C5C[C@@H](O)CC[C@]5(C)[C@H]4CC[C@]23C)CC1 [Example 614, (4R)-4-[(1R,3aS,3bS,7S,9aR,9bS,11aR)-7-hydroxy-9a,11a-dimethyl-1H,2H,3H,3aH,3bH,4H,6H,7H,8H,9H,9aH,9bH,10H,11H,11aH-cyclopenta[a]phenanthren-1-yl]-1-[4-(4-methoxypyrimidin-5-yl)piperazin-1-yl]pentan-1-one] | < 250 nM | > 10000 nM | –
CNC(=O)N1CCN(C(=O)CC[C@@H](C)[C@H]2CC[C@H]3[C@@H]4CC=C5C[C@@H](O)CC[C@]5(C)[C@H]4CC[C@]23C)CC1 [Example 337, 4-[(4R)-4-[(1R,3aS,3bS,7S,9aR,9bS,11aR)-7-hydroxy-9a,11a-dimethyl-1H,2H,3H,3aH,3bH,4H,6H,7H,8H,9H,9aH,9bH,10H,11H,11aH-cyclopenta[a]phenanthren-1-yl]pentanoyl]-N-methylpiperazine-1-carboxamide] | < 250 nM | > 10000 nM | –
CCC1(O)CCN(C(=O)C(=O)O[C@@H](C)[C@H]2CC[C@H]3[C@@H]4CC=C5C[C@@H](O)CC[C@]5(C)[C@H]4CC[C@]23C)CC1 [Example 200, (S)-1-((3S,8S,9S,10R,13S,14S,17S)-3-hydroxy-10,13-dimethyl-2,3,4,7,8,9,10,11,12,13,14,15,16,17-tetradecahydro-1H-cyclopenta[a]phenanthren-17-yl)ethyl 2-(4-ethyl-4-hydroxypiperidin-1-yl)-2-oxoacetate] | < 250 nM | 1000 to 10000 nM | –
C[C@H](CCC(=O)N1CCC[C@H](c2ccccc2)C1)[C@H]1CC[C@H]2[C@@H]3CC=C4C[C@@H](O)CC[C@]4(C)[C@H]3CC[C@]12C [Example 77, (R)-4-((3S,8S,9S,10R,13R,14S,17R)-3-hydroxy-10,13-dimethyl-2,3,4,7,8,9,10,11,12,13,14,15,16,17-tetradecahydro-1H-cyclopenta[a]phenanthren-17-yl)-1-((R)-3-phenylpiperidin-1-yl) pentan-1-one] | < 250 nM | 1000 to 10000 nM | –
C[C@H](CCC(=O)N1CCC(O)(c2ccccc2)CC1)[C@H]1CC[C@H]2[C@@H]3CC=C4C[C@@H](O)CC[C@]4(C)[C@H]3CC[C@]12C [Example 91, (R)-4-((3S,8S,9S,10R,13R,14S,17R)-3-hydroxy-10,13-dimethyl-2,3,4,7,8,9,10,11,12,13,14,15,16,17-tetradecahydro-1H-cyclopenta[a]phenanthren-17-yl)-1-(4-hydroxy-4-phenylpiperidin-1-yl) pentan-1-one] | < 250 nM | > 10000 nM | –
C[C@H](CCC(=O)N1CCC[C@H](O)C1)[C@H]1CC[C@H]2[C@@H]3CC=C4C[C@@H](O)CC[C@]4(C)[C@H]3CC[C@]12C [Example 103, (R)-4-((3S,8S,9S,10R,13R,14S,17R)-3-hydroxy-10,13-dimethyl-2,3,4,7,8,9,10,11,12,13,14,15,16,17-tetradecahydro-1H-cyclopenta[a]phenanthren-17-yl)-1-((S)-3-hydroxypiperidin-1-yl)pentan-1-one] | < 250 nM | 250 to 1000 nM | –
C[C@H](CCc1ccc2ccccc2n1)[C@H]1CC[C@H]2[C@@H]3CC=C4C[C@@H](O)CC[C@]4(C)[C@H]3CC[C@]12C [Example 178, (3S,8S,9S,10R,13R,14S,17R)-10,13-dimethyl-17-((R)-4-(quinolin-2-yl)butan-2-yl)-2,3,4,7,8,9,10,11,12,13,14,15,16,17-tetradecahydro-1H-cyclopenta[a]phenanthren-3-ol] | 250 to 1000 nM | > 10000 nM | –
C[C@H](CCC(=O)N1CCN(C(=O)c2cn[nH]c2)CC1)[C@H]1CC[C@H]2[C@@H]3CC=C4C[C@@H](O)CC[C@]4(C)[C@H]3CC[C@]12C [Example 310, (R)-1-(4-(1H-pyrazole-4-carbonyl)piperazin-1-yl)-4-((3S,8S,9S,10R,13R,14S,17R)-3-hydroxy-10,13-dimethyl-2,3,4,7,8,9,10,11,12,13,14,15,16,17-tetradecahydro-1H-cyclopenta[a]phenanthren-17-yl)pentan-1-one] | < 250 nM | > 10000 nM | –
CC(O)C1CCN(C(=O)CC[C@@H](C)[C@H]2CC[C@H]3[C@@H]4CC=C5C[C@@H](O)CC[C@]5(C)[C@H]4CC[C@]23C)CC1 (stereo partly drawn) [Example 377, (4R)-4-[(1R,3aS,3bS,7S,9aR,9bS,11aR)-7-hydroxy-9a,11a-dimethyl-1H,2H,3H,3aH,3bH,4H,6H,7H,8H,9H,9aH,9bH,10H,11H,11aH-cyclopenta[a]phenanthren-1-yl]-1-[4-(1-hydroxyethyl)piperidin-1-yl]pentan-1-one] | < 250 nM | 250 to 1000 nM | –
COCCN(C)C(=O)N1CCN(C(=O)CC[C@@H](C)[C@H]2CC[C@H]3[C@@H]4CC=C5C[C@@H](O)CC[C@]5(C)[C@H]4CC[C@]23C)CC1 [Example 209, 4-((R)-4-((3S,8S,9S,10R,13R,14S,17R)-3-hydroxy-10,13-dimethyl-2,3,4,7,8,9,10,11,12,13,14,15,16,17-tetradecahydro-1H-cyclopenta[a]phenanthren-17-yl)pentanoyl)-N-(2-methoxyethyl)-N-methylpiperazine-1-carboxamide] | – | > 10000 nM | < 250 nM
C[C@H](CCC(=O)N1CCOc2cccnc21)[C@H]1CC[C@H]2[C@@H]3CC=C4C[C@@H](O)CC[C@]4(C)[C@H]3CC[C@]12C [Example 626, (4R)-4-[(1R,3aS,3bS,7S,9aR,9bS,11aR)-7-hydroxy-9a,11a-dimethyl-1H,2H,3H,3aH,3bH,4H,6H,7H,8H,9H,9aH,9bH,10H,11H,11aH-cyclopenta[a]phenanthren-1-yl]-1-{2H,3H,4H-pyrido[3,2-b][1,4]oxazin-4-yl}pentan-1-one] | < 250 nM | 1000 to 10000 nM | –
COCCN(C)C(=O)OC[C@@H](C)[C@H]1CC[C@H]2[C@@H]3CC=C4C[C@@H](O)CC[C@]4(C)[C@H]3CC[C@]12C [Example 349, (S)-2-((3S,8S,9S,10R,13S,14S,17R)-3-hydroxy-10,13-dimethyl-2,3,4,7,8,9,10,11,12,13,14,15,16,17-tetradecahydro-1H-cyclopenta[a]phenanthren-17-yl)propyl (2-methoxyethyl)(methyl)carbamate] | < 250 nM | > 10000 nM | –
C[C@H](CCC(=O)N1CCN(C(=O)c2ccn(C)n2)CC1)[C@H]1CC[C@H]2[C@@H]3CC=C4C[C@@H](O)CC[C@]4(C)[C@H]3CC[C@]12C [Example 539, (4R)-4-[(1R,3aS,3bS,7S,9aR,9bS,11aR)-7-hydroxy-9a,11a-dimethyl-1H,2H,3H,3aH,3bH,4H,6H,7H,8H,9H,9aH,9bH,10H,11H,11aH-cyclopenta[a]phenanthren-1-yl]-1-[4-(1-methyl-1H-pyrazole-3-carbonyl)piperazin-1-yl]pentan-1-one] | < 250 nM | > 10000 nM | –
COC(=O)N1CCC(N(C)C(=O)CC[C@@H](C)[C@H]2CC[C@H]3[C@@H]4CC=C5C[C@@H](O)CC[C@]5(C)[C@H]4CC[C@]23C)CC1 [Example 643, Methyl 4-[(4R)-4-[(1R,3aS,3bS,7S,9aR,9bS,11aR)-7-hydroxy-9a,11a-dimethyl-1H,2H,3H,3aH,3bH,4H,6H,7H,8H,9H,9aH,9bH,10H,11H,11aH-cyclopenta[a]phenanthren-1-yl]-N-methylpentanamido]piperidine-1-carboxylate] | < 250 nM | > 10000 nM | –

Reference: patent US20230340011A1 (Asteroid Therapeutics, priority 2022, published 2023)
